This note sets out measurements from patent US12403137B2, “Compounds and methods of use” (Tango Therapeutics, Inc., priority 2019, dated 2025).

As a reminder, the IC50 is the concentration that gives 50% inhibition.

Assay [1] deals with T1, PRMT5 (Homo sapiens, UniProt O14744).
T1 construct: purchased Viva (custom protein)
The experiment in a line: PRMT5 inhibition assay with SAM as cofactor. The format is biochemical. The settings on record: against PRMT5 in the presence of SAM as cofactor. From the text: (§1) The Ki values can be calculated from the IC50 values as described in the Examples section. As detailed in the Examples section, for the assay performed in the presence of SAM, IC50=Ki×1.5 (Ki=IC50/1.5). For the assay performed in the presence of MTA, IC50=Ki×13.5 (Ki=IC50/13.5). Column 6 indicates the ratio between the Ki of compounds in the presence of SAM and the Ki of compounds in the presence of MTA

In assay [2] the target is T1, PRMT5. Description: PRMT5 inhibition assay with no cofactor. The assay is classed as biochemical. The settings on record: against PRMT5 with no cofactor; read-out: No Co-factor IC50.
In assay [3] the test system is HAP1 MTAP-deleted cell line. The experiment in a line: SDMA in-cell western assay, HAP1 MTAP-deleted. The format is cell-based. The following applies: for IC50: Homo sapiens, HAP1 MTAP-deleted (MTAP-null) cell line; for MTAP Intact/Deleted Ratio: IC50 ratio HAP1 MTAP-intact / HAP1 MTAP-deleted, >=3 fold considered MTAP-selective. How it is done: (§2) Table 1 also indicates IC50 values in an MTAP-isogenic cell line pair for exemplary compounds in an SDMA in-cell western assay (columns 7-8). HAP1 MTAP-intact is a cell line in which endogenous levels of MTAP are expressed, and HAP1 MTAP-deleted is an MTAP-null cell line. For Table 1, “a*” and “aa*” indicates an IC50 of <1 μM, “b*” and “bb*” indicates an IC50 equal to or greater than 1 μM but less than 10 μM, and “c*” and “cc*” indicates an IC50 of greater than or equal to 10 μM in the HAP1 MTAP-intact and the HAP1 MTAP-deleted assays, respectively. In column 9, “A*” indicates an IC50 ratio greater than or equal to 10 fold between the IC50 in the HAP1 MTAP-intact cell line and the HAP1 MTAP-deleted cell line; “B*” indicates an IC50 ratio greater than or equal to 3 fold but lower than 10 fold between the IC50 in the HAP1 MTAP-intact cell line and the HAP1 MTAP-deleted cell line; “C*” indicates an IC50 ratio of less than 3 fold between the IC50 in the HAP1 MTAP-intact cell line and the HAP1 MTAP-deleted cell line. Compounds with a ratio in the SDMA in-cell western assay of equal to or greater than 3 fold are considered MTAP-selective.

For assay [4], the system named is HAP1 MTAP-intact cell line. Description: SDMA in-cell western assay, HAP1 MTAP-intact. The following applies: for IC50: Homo sapiens. The assay is classed as cell-based. How it is done: as §2
Assay [5] has as its target T1, PRMT5. The experiment in a line: PRMT5 inhibition assay with MTA as cofactor. The assay is classed as biochemical. The following applies: for IC50: against PRMT5 with MTA as cofactor; for SAM/MTA Ratio: ratio of Ki in the presence of SAM to Ki in the presence of MTA, Ki=IC50/1.5 (SAM), Ki=IC50/13.5 (MTA).
From the text: as §1

T1 sequence (O14744 whole entry): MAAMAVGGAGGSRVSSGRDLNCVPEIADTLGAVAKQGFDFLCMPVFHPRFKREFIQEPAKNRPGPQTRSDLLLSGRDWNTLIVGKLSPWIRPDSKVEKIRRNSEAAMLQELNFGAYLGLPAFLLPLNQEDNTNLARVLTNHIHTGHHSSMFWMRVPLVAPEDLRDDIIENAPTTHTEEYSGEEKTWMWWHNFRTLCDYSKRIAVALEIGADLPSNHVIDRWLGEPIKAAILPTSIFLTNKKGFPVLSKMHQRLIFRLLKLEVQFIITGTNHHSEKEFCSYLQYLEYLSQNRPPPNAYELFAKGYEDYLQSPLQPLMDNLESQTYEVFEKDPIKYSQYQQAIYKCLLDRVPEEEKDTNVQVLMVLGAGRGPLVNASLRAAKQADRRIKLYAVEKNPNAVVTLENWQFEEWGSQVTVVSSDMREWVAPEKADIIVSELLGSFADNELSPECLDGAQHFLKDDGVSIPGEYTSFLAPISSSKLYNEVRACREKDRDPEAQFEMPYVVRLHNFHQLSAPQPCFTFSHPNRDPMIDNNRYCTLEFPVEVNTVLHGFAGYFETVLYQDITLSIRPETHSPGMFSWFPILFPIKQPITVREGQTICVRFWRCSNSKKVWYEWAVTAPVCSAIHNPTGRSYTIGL
T1 sequence (Q9BQA1 whole entry partner): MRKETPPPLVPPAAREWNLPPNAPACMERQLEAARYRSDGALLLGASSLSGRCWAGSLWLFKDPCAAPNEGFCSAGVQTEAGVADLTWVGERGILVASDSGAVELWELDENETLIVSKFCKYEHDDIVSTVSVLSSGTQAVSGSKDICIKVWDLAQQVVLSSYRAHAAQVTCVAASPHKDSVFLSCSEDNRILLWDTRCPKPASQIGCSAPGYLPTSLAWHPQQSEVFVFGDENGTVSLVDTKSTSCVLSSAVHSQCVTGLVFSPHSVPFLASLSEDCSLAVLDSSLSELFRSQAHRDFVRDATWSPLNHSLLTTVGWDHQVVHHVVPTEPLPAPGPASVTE

`O=C(NC[C@@H](O)[C@@H]1Cc2ccc(OCc3cnco3)cc2CN1)c1ccc(C(=O)N2CCOCC2)cc1` [Compound 1, N—((R)-2-hydroxy-2-((S)-7-(oxazol-5-ylmethoxy)-1,2,3,4-tetrahydroisoquinolin-3-yl)ethyl)-4-(morpholine-4-carbonyl)benzamide]: the concentration for half-maximal inhibition (IC50) is 0.05 to 0.5 µM at PRMT5 [1]; no less than 5 µM on PRMT5 [2]; no less than 10 µM in assay [3]; no less than 10 µM in assay [4]; 0.05 to 0.5 µM at PRMT5 [5]. Moreover, the “MTAP Intact/Deleted Ratio” value in assay [3] is “C* (an IC50 ratio of less than 3 fold between the IC50 in the HAP1 MTAP-intact cell line and the HAP1 MTAP-deleted cell line)”. For the same compound, the “SAM/MTA Ratio” value at PRMT5 [5] is “A (a Ki ratio greater than or equal to 10 fold between the Ki in the presence of SAM and the Ki in the presence of MTA)”.

`Cn1nccc1COc1ccc2c(c1)CN[C@H]([C@H](O)CNC(=O)c1ccc(C(=O)N3CCOCC3)cc1)C2` [Compound 2, N—((R)-2-hydroxy-2-((S)-7-((1-methyl-1H-pyrazol-5-yl)methoxy)-1,2,3,4-tetrahydroisoquinolin-3-yl)ethyl)-4-(morpholine-4-carbonyl)benzamide]: the IC50 was 0.05 to 0.5 µM on PRMT5 [1]; 0.5 to 5 µM at PRMT5 [2]; no less than 10 µM in assay [3]; no less than 10 µM in assay [4]; 0.05 to 0.5 µM against PRMT5 [5]. Moreover, the “MTAP Intact/Deleted Ratio” value in assay [3] is “C* (an IC50 ratio of less than 3 fold between the IC50 in the HAP1 MTAP-intact cell line and the HAP1 MTAP-deleted cell line)”. Moreover, on PRMT5 [5], the “SAM/MTA Ratio” value was “A (a Ki ratio greater than or equal to 10 fold between the Ki in the presence of SAM and the Ki in the presence of MTA)”.

With `Cc1ncoc1COc1ccc2c(c1)CN[C@H]([C@H](O)CNC(=O)c1ccc(C(=O)N3CCOCC3)cc1)C2` [Compound 3, N—((R)-2-hydroxy-2-((S)-7-((4-methyloxazol-5-yl)methoxy)-1,2,3,4-tetrahydroisoquinolin-3-yl)ethyl)-4-(morpholine-4-carbonyl)benzamide], the half-maximal inhibitory concentration (IC50) on PRMT5 [1] was 0.05 to 0.5 µM; at PRMT5 [2], 0.5 to 5 µM; in assay [3], 1 to 10 µM; in assay [4], no less than 10 µM; at PRMT5 [5] it was 0.05 to 0.5 µM. In addition, in assay [3], the “MTAP Intact/Deleted Ratio” value is “C* (an IC50 ratio of less than 3 fold between the IC50 in the HAP1 MTAP-intact cell line and the HAP1 MTAP-deleted cell line)”. Also, the “SAM/MTA Ratio” value on PRMT5 [5] is “A (a Ki ratio greater than or equal to 10 fold between the Ki in the presence of SAM and the Ki in the presence of MTA)”.

Take `O=C(NC[C@@H](O)[C@@H]1Cc2ccc(OCc3cn[nH]c3)cc2CN1)c1ccc(C(=O)N2CCOCC2)cc1` [Compound 4, N—((R)-2-((S)-7-((1H-pyrazol-4-yl)methoxy)-1,2,3,4-tetrahydroisoquinolin-3-yl)-2-hydroxyethyl)-4-(morpholine-4-carbonyl)benzamide]: the half-maximal inhibitory concentration (IC50) at PRMT5 [1] was 0.05 to 0.5 µM; on PRMT5 [2] it was 0.05 to 0.5 µM; in assay [3], 1 to 10 µM; in assay [4] it was no less than 10 µM; against PRMT5 [5], 0.05 to 0.5 µM. In addition, the “MTAP Intact/Deleted Ratio” value in assay [3] was “C* (an IC50 ratio of less than 3 fold between the IC50 in the HAP1 MTAP-intact cell line and the HAP1 MTAP-deleted cell line)”. Also, the “SAM/MTA Ratio” value on PRMT5 [5] is “A (a Ki ratio greater than or equal to 10 fold between the Ki in the presence of SAM and the Ki in the presence of MTA)”.

`COCCN(C)c1nc(NC2COC2)cc(C(=O)NC[C@@H](O)[C@@H]2Cc3ccc(OCc4ocnc4C)cc3CN2)n1` [Compound 37, N—((R)-2-hydroxy-2-((S)-7-((4-methyloxazol-5-yl)methoxy)-1,2,3,4-tetrahydroisoquinolin-3-yl)ethyl)-2-((2-methoxyethyl)(methyl)amino)-6-(oxetan-3-ylamino)pyrimidine-4-carboxamide]: the values for the 50% inhibitory concentration (IC50) on PRMT5 [1], at PRMT5 [2] and against PRMT5 [5] were 0.5 to 5 µM, no less than 5 µM and 0.5 to 5 µM, respectively. The “SAM/MTA Ratio” value on PRMT5 [5] is “A (a Ki ratio greater than or equal to 10 fold between the Ki in the presence of SAM and the Ki in the presence of MTA)”.

`CCCN(C)c1nc(NC2COC2)cc(C(=O)NC[C@@H](O)[C@@H]2Cc3ccc(OCc4ocnc4C)cc3CN2)n1` [Compound 38, N—((R)-2-hydroxy-2-((S)-7-((4-methyloxazol-5-yl)methoxy)-1,2,3,4-tetrahydroisoquinolin-3-yl)ethyl)-2-(methyl(propyl)amino)-6-(oxetan-3-ylamino)pyrimidine-4-carboxamide]: the IC50 at PRMT5 [1] was 0.5 to 5 µM; on PRMT5 [2], no less than 5 µM; on PRMT5 [5], 0.5 to 5 µM. Further, the “SAM/MTA Ratio” value at PRMT5 [5] was “A (a Ki ratio greater than or equal to 10 fold between the Ki in the presence of SAM and the Ki in the presence of MTA)”.

Turning to `Cc1ncoc1COc1ccc2c(c1)CN[C@H]([C@H](O)CNC(=O)c1cc(NC3CC4(CCC4)C3)nc(N3CCN(C(C)C)CC3)c1)C2` [Compound 70], the IC50 is less than 0.05 µM at PRMT5 [2], less than 1 µM in assay [3], less than 1 µM in assay [4] and less than 0.05 µM against PRMT5 [5]. In addition, the “MTAP Intact/Deleted Ratio” value in assay [3] was “B* (an IC50 ratio greater than or equal to 3 fold but lower than 10 fold between the IC50 in the HAP1 MTAP-intact cell line and the HAP1 MTAP-deleted cell line)”.

For the compound `CC(=O)N1CCC(Nc2cc(C(=O)NC[C@@H](O)[C@@H]3Cc4ccc(OCc5ocnc5C)cc4CN3)cc(N3CCN(C(C)C)CC3)n2)CC1` [Compound 71], the 50% inhibitory concentration (IC50) was less than 0.05 µM at PRMT5 [2], 1 to 10 µM in assay [3], no less than 10 µM in assay [4] and less than 0.05 µM against PRMT5 [5]. Further, the “MTAP Intact/Deleted Ratio” value in assay [3] was “B* (an IC50 ratio greater than or equal to 3 fold but lower than 10 fold between the IC50 in the HAP1 MTAP-intact cell line and the HAP1 MTAP-deleted cell line)”.

On to `CC(=O)N1CCC(Nc2cc(C(=O)NC[C@@H](O)[C@@H]3Cc4ccc(OCc5ocnc5C)cc4CN3)nc(N3CCN(C(C)C)CC3)n2)CC1` [Compound 72], for which the half-inhibitory concentration (IC50) on PRMT5 [2] is 0.05 to 0.5 µM; in assay [3], less than 1 µM; on PRMT5 [5] it was less than 0.05 µM. For the same compound, in assay [3], the “MTAP Intact/Deleted Ratio” value is “A* (an IC50 ratio greater than or equal to 10 fold between the IC50 in the HAP1 MTAP-intact cell line and the HAP1 MTAP-deleted cell line)”. Moreover, the “HAP1 MTAP Intact IC50” value in assay [4] is “B*”.

For `Cc1ncoc1COc1ccc2c(c1)CN[C@H]([C@H](O)CNC(=O)c1cc(NC3CCC3)nc(C3CCN(C(C)C)CC3)c1)C2` [Compound 78], the IC50 on PRMT5 [2] is 0.05 to 0.5 µM; in assay [3] it was less than 1 µM; in assay [4] it was 1 to 10 µM; on PRMT5 [5] it was less than 0.05 µM. For the same compound, in assay [3], the “MTAP Intact/Deleted Ratio” value is “A* (an IC50 ratio greater than or equal to 10 fold between the IC50 in the HAP1 MTAP-intact cell line and the HAP1 MTAP-deleted cell line)”.

For `COCCN(C)c1nc(NC2CCN(C(C)=O)CC2)cc(C(=O)NC[C@@H](O)[C@@H]2Cc3ccc(OCc4ocnc4C)cc3CN2)n1` [Compound 79], the half-maximal inhibitory concentration (IC50) at PRMT5 [2] was 0.05 to 0.5 µM; in assay [3], less than 1 µM; in assay [4], 1 to 10 µM; at PRMT5 [5], less than 0.05 µM. Besides, in assay [3], the “MTAP Intact/Deleted Ratio” value is “A* (an IC50 ratio greater than or equal to 10 fold between the IC50 in the HAP1 MTAP-intact cell line and the HAP1 MTAP-deleted cell line)”.

Regarding `CC(=O)N1CCC(Nc2cc(C(=O)NC[C@@H](O)[C@@H]3Cc4ccc(OCc5ocnc5C)cc4CN3)nc(N3CCCC3)n2)CC1` [Compound 81], the half-inhibitory concentration (IC50) at PRMT5 [2] is 0.05 to 0.5 µM; in assay [3], less than 1 µM; in assay [4] it was 1 to 10 µM; on PRMT5 [5] it was less than 0.05 µM. In assay [3], the “MTAP Intact/Deleted Ratio” value was “A* (an IC50 ratio greater than or equal to 10 fold between the IC50 in the HAP1 MTAP-intact cell line and the HAP1 MTAP-deleted cell line)”.

Turning to `COCCN(C)c1nc(NC2CN(C(C)=O)C2)cc(C(=O)NC[C@@H](O)[C@@H]2Cc3ccc(OCc4ocnc4C)cc3CN2)n1` [Compound 82], the half-maximal inhibitory concentration (IC50) on PRMT5 [2] is 0.05 to 0.5 µM; in assay [3] it was less than 1 µM; in assay [4] it was no less than 10 µM; against PRMT5 [5] it was less than 0.05 µM. In addition, in assay [3], the “MTAP Intact/Deleted Ratio” value was “A* (an IC50 ratio greater than or equal to 10 fold between the IC50 in the HAP1 MTAP-intact cell line and the HAP1 MTAP-deleted cell line)”.
